Experimental data reported in patent US10000765B2, “Gene encoding cytochrome P450, and use thereof” (NATIONAL INSTITUTE OF AGROBIOLOGICAL SCIENCES, priority 2011, dated 2018).

How the values were obtained:
[1] = test system: CYP72A31-overexpressing rice (K31-4-6-2); assay: Drug sensitivity test on gellan gum medium, CYP72A31-overexpressing rice; type: in vivo, Oryza sativa; conditions: for CK ratio (%): plant height compared with drug-free medium
Description: Next, 1.6 g of Hoagland's mix (Sigma-Aldrich Corporation) and 3 g of Gelrite (Wako Pure Chemical Industries, Ltd.) were suspended in 1 L of distilled water. Then, the mixture was dissolved and heated in a microwave. After that, the mixture was cooled to 50 to 60 degree C., and BS was added at a final concentration of 1 μM. This mixture was dispensed into 30-mL tubular bottles at 15 mL to prepare a gellan gum medium. Next, CSSL rice paddies were soaked in 0.5% sodium hypochlorite for about 20 minutes, and were then washed well with water. These paddies were soaked in distilled water, and kept at 27 degree C. for 3 to 5 days for germination. Germinating seeds were softly planted in sprout-side up on the gellan gum medium. These samples, together with a beaker filled with distilled water, were placed in a transparent case, which was then covered with a clear-plastic wrap. These samples were grown at 27 degree C. under fluorescent light illumination (14 hours of a light period and 10 hours of a dark period) for 7 to 9 days.
According to the method of Example 1, a gellan gum medium containing a test drug at a concentration of 0.01, 0.1, 1, or 10 μM was prepared. Rice seeds were sterilized, germinated, seeded in the medium, and cultivated.

[2] = test system: Nipponbare calluses overexpressing Kasalath-derived or Nipponbare-derived CYP72A32 or CYP72A33; assay: Callus growth test on BS-containing medium, CYP72A32 or CYP72A33 overexpression constructs; type: cell-based, Oryza sativa
From the text: According to Example 5, an HptII::35Spro::Kasalath CYP72A32::Tnos vector plasmid (pCAMBIA1390-KasCYP72A32, a kasCYP72A32 overexpression construct), an HptII::35 Spro::Kasalath CYP72A33::Tnos vector plasmid (pCAMBIA1390-KasCYP72A33, a kasCYP72A33 overexpression construct), an HptII::35Spro::Nipponbare CYP72A32::Tnos vector plasmid (pCAMBIA1390-nbCYP72A32, an nbCYP72A32 overexpression construct), or an HptII::35Spro::Nipponbare CYP72A33::Tnos vector plasmid (pCAMBIA1390-nbCYP72A33, an nbCYP72A33 overexpression construct) was introduced into a rice variety (a cultivar: Nipponbare) by using an Agrobacterium method. Transformed calluses selected with 50 ppm hygromycin were isolated, and transplanted onto a bispyribac-sodium (BS)-containing medium to examine callus growth.

[3] = test system: Rice (Nipponbare) calluses transformed with pCAMBIA1390-KasCYP72A31; assay: Redifferentiation and rooting test, rice callus transformed with pCAMBIA1390-KasCYP72A31; type: cell-based, Oryza sativa
Description: (§1) After selective culturing, the callus was transplanted onto a rice redifferentiation medium RE-III (containing 50 ppm hygromycin or 0.25 μM bispyribac sodium), cultured at 27 degree C. under 16L/8D conditions, and led to redifferentiate. The callus was plated after 2 weeks. At additional about 2 to 3 weeks, a redifferentiated, transformed rice (T0) was obtained. Once a differentiated shoot and/or root had appeared, the rice was transplanted onto a hormone-free (HF) medium (containing 50 ppm hygromycin or 0.25 μM bispyribac sodium).
(§2) According to Example 5, an HptII::35Spro::Kasalath CYP72A31::Tnos vector plasmid (pCAMBIA1390-KasCYP72A31, a kasCYP72A31 overexpression construct) or, as controls, an HptII::35Spro::sGFP::Tnos vector plasmid (pCAMBIA1302-sGFP, an sGFP overexpression construct) or an OsALS (W548L/S627I)::OsAct-1pro::sGFP::Tnos vector plasmid (pSTARA-sGFP, a BS-resistant construct) was introduced into a rice variety (a cultivar: Nipponbare) by using an Agrobacterium method. According to a schedule designated in FIG. 12A), transformed calluses were selected with 50 ppm hygromycin. […] Of all the calluses, 43 calluses were transplanted onto a redifferentiation medium containing 0.25 μM BS.
Rice (Nipponbare) calluses transformed with a pCAMBIA1390-KasCYP72A31 construct in Example 8 were obtained by 50 ppm hygromycin selection. When these calluses were transplanted onto a redifferentiation medium containing 50 ppm hygromycin, shoots and roots were differentiated from the callus at a redifferentiation efficiency of 95% (38/40 calluses). Subsequently, 25 redifferentiation calluses transformed with a pCAMBIA1390-KasCYP72A31 construct were transplanted onto a hormone-free medium containing 1 μM BS. As a result, 7 calluses had extending roots (a root extension rate of 28%. FIG. 15).

[4] = test system: Rice (Nipponbare) calluses transformed with pCAMBIA1302-sGFP; assay: Redifferentiation and rooting test, control rice callus transformed with pCAMBIA1302-sGFP; type: cell-based, Oryza sativa
Description: as §1, §2
Rice (Nipponbare) calluses transformed with a pCAMBIA1390-KasCYP72A31 construct in Example 8 were obtained by 50 ppm hygromycin selection. […]

[5] = test system: Arabidopsis thaliana K33-1-3 and K33-2-4; assay: Growth test in BS-containing medium, Arabidopsis transformed with Kasalath-derived CYP72A33; type: in vivo; conditions: day 10 from onset of cultivation, compared to NT
From the text: In this Example, Agrobacterium as prepared in Example 4 was used to introduce HptII::35Spro::Kasalath CYP72A31::Tnos vector plasmid (pCAMBIA1390-KasCYP72A31), HptII::35Spro::Kasalath CYP72A32::Tnos vector plasmid (pCAMBIA1390-KasCYP72A32), or HptII::35Spro::Kasalath CYP72A33::Tnos vector plasmid (pCAMBIA1390-KasCYP72A33) into Arabidopsis thaliana (ecotype: Col-0) by using a floral-dip method. The floral-dip method followed a standard method. […] K31-4-2 and K31-6-5 were selected as fixed lines derived from pCAMBIA1390-KasCYP72A31; K32-1-1, K32-3-1, and K32-5-1 were selected as fixed lines derived from pCAMBIA1390-KasCYP72A32; and K33-1-3 and K33-2-4 were selected as fixed lines derived from pCAMBIA1390-KasCYP72A33. Their seeds were seeded in a medium containing each concentration of BS, and cultivated for 10 days. FIGS. 16A and 16B illustrate the results.
Next, 15 seeds for each of non-transformed Arabidopsis thaliana (NT which is denoted by “Col-0” in FIGS. 19A-19C) and transformed plant bodies (K33-1-3 which is denoted by “K33oe-1-3” in FIGS. 19A-19C and K33-2-4 which is denoted by “K33oe-2-4” in FIGS. 19A-19C) were cultivated on a medium containing each concentration of BS. […]

[6] = hormone-free medium containing 1 μM BS
[7] = redifferentiation medium containing 0.25 μM BS

SMILES: COc1cc(OC)nc(Oc2cccc(Oc3nc(OC)cc(OC)n3)c2C(=O)O)n1 [BS, bispyribac sodium]
- Resistance of transformed rice to the drug ([1]; Table 4 and FIG. 25): exhibited resistance
- Ratio of sensitivity ([1]; maximum drug concentration for CK ratio of 40% or more, K31-4-6-2 / wild-type rice): >100
- CK ratio (%) ([1]; K31-4-6-2, drug 0.01 μM): 106%
- CK ratio (%) ([1]; K31-4-6-2, drug 0.1 μM): 97%
- CK ratio (%) ([1]; K31-4-6-2, drug 1 μM): 103%
- CK ratio (%) ([1]; K31-4-6-2, drug 10 μM): 74%
- Callus growth [2]: not grown
- Calluses with extending roots of all redifferentiation calluses ([3]; hormone-free medium containing 0.25 μM BS): 73%
- Root extension rate [3, 6]: 28%
- Redifferentiation efficiency [3, 7]: 91%
- Rooting and survival of plant bodies [4, 6]: killed the plant bodies
- Redifferentiation [4, 7]: found not to include those redifferentiated
- BS sensitivity (germinated seeds, emerging of true leaves, fresh weight of above-ground part) [5]: BS sensitivity equivalent to NT
